{
  "source": "patent US11633413B2",
  "about": "“Composition for preventing or improving menopausal symptom comprising novel ginsenoside” (AMOREPACIFIC CORPORATION, priority 2019, dated 2023)",
  "type_in_all_cases": "cell-based",
  "key": {"[1]": {"test_system": "MCF-7 breast cancer cells", "test": "growth of MCF-7 breast cancer cells (cell counting)", "conditions": "10 μg/mL for 48 hours; number of cells counted; FIG. 15"}, "estrogen receptor ERα": {"biological_target": "T1, estrogen receptor ERα (Homo sapiens, UniProt P03372)", "T1 sequence (P03372 1-595)": "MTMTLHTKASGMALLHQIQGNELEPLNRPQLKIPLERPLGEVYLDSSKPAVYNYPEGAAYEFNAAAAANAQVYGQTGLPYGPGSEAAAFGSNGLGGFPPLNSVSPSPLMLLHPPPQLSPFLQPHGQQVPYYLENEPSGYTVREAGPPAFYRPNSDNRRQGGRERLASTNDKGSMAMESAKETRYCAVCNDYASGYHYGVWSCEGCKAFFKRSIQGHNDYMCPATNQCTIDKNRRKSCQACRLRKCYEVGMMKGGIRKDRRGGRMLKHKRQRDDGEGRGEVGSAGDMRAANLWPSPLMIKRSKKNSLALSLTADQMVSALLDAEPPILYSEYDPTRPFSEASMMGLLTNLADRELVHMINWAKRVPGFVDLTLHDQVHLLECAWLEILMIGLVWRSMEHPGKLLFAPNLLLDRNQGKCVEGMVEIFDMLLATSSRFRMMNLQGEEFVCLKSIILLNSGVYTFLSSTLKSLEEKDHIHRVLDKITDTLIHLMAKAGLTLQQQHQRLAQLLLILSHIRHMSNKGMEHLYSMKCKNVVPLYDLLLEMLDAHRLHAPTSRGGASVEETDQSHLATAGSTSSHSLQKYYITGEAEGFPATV", "test": "human ERα reporter assay (ERE-luc, Indigo Bioscience #IB00421-48P)", "conditions": "for increase of the activity of the estrogen receptor ERα: Test Example 1, 10 μg/mL for 24 hours, FIG. 11, FIG. 14; for activity of ERα: Test Example 3, same manner as Test Example 1, FIG. 16", "method": "(§1) After treating each of the novel ginsenoside GS #10 according to an exemplary embodiment of the present disclosure and other ginsenosides GS #01 to GS #06 isolated from the ginseng seed extract with a human ERα/β reporter assay panel (#IB00421-48P; Indigo Bioscience) at a concentration of 10 μg/mL for 24 hours, the increase of the activity of the estrogen receptors ERα and ERβ was analyzed. The #IB00421-48P kit comprises cells in which ERα and ERβ are overexpressed, respectively, and comprises the ERE-luc reporter gene. If the activity of the ER is increased by treating with the example or a comparative example, ERα and ERβ bind to ERE, thereby inducing the expression of luciferase. Therefore, the activity of ERα and ERβ can be measured by measuring the light intensity of the cells. As the comparative example, a methanol extract of ginseng seed (seeds of Panax ginseng) used for the isolation of the ginsenosides in Example 1 was used.\n(§2) It is reported that, although the increased activity of the estrogen receptors ERα and ERβ can lead to alleviation of menopausal symptoms, ERs are overexpressed in more than 70% of breast cancer cells, mainly due to increased ERα (ESR1) (see Deroo B J et al., J Clin Invest 116:561 (2006)).\n(§3) The effect of preventing or improving menopausal symptoms of the novel ginsenoside […] according to an exemplary embodiment of the present disclosure was compared with that of ginsenosides Rg1, Rg3 and Rb1 (purchased from Sigma), which are red ginseng marker compounds, as comparative examples. Ginsenoside Rg3 has the following chemical structure. The experiment was performed in the same manner as in Test Example 1."}, "estrogen receptor ERβ": {"biological_target": "estrogen receptor ERβ (Homo sapiens, UniProt Q92731)", "sequence (Q92731 whole entry)": "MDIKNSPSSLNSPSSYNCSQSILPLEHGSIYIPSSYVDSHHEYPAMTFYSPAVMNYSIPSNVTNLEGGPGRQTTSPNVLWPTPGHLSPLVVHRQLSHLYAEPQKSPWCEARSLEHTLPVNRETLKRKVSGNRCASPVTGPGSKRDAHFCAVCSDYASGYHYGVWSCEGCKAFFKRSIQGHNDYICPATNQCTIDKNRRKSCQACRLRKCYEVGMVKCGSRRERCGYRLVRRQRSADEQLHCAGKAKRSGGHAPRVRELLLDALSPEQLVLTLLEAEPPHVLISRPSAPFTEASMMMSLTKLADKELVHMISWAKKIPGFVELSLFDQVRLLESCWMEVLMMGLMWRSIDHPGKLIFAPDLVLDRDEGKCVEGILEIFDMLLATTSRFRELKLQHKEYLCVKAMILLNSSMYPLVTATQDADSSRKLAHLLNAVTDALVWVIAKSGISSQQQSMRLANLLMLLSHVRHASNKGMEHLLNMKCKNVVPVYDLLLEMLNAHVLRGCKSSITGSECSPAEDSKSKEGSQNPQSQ", "test": "human ERβ reporter assay (ERE-luc, Indigo Bioscience #IB00421-48P)", "conditions": "for activity of ERβ: same manner as Test Example 1", "method": "as §1, §2, §3"}, "SH-SY5Y cells": {"test_system": "SH-SY5Y cells", "test": "cytotoxicity, cell counting kit (CCK-8)", "conditions": "0.1, 1, 5, 10, 20 and 50 μM, FIG. 18", "method": "Cell growth in the presence of the novel ginsenoside GS #10 according to an exemplary embodiment of the present disclosure was evaluated using a cell counting kit (CCK-8) in order to exclude the possibility that the ginsenoside may affect the effect of preventing or improving menopausal symptoms through cytotoxic activity. The experimental method is as follows.\n10 μL of a CCK-8 reagent was added to SH-SY5Y cells (Dojindo, Md., USA) in a 96-well plate and left at 37° C. for 2 hours. Then, absorbance was measured at 450 nm. Cell viability was represented as the percentage (%) of the absolute optical density of each sample relative to an untreated sample. The concentration of the novel ginsenoside GS #10 according to an exemplary embodiment of the present disclosure in the medium in which the cells were cultured was 0.1, 1, 5, 10, 20 and 50 μM, respectively."}},
  "note": "Entries after “also recorded” stand apart in the source; their conditions may differ.",
  "data": [
    {"smiles": "C[C@]12CC[C@@H]3c4ccc(O)cc4CC[C@H]3[C@@H]1CC[C@@H]2O", "note": "[17β-estradiol, 17β-Estradiol, reference compound]", "values": [
      {"measurement": "growth of MCF-7 breast cancer cells (side effect of promoting cancer cell growth)", "setting": "[1]", "value": "promoted the growth of the breast cancer cells"}
    ]},
    {"smiles": "CC(C)=CCC[C@](C)(O[C@@H]1O[C@H](CO[C@@H]2O[C@H](CO)[C@@H](O)[C@H](O)[C@H]2O)[C@@H](O)[C@H](O)[C@H]1O)[C@H]1CC[C@]2(C)[C@@H]1[C@H](O)C[C@@H]1[C@@]3(C)CC[C@H](O[C@@H]4O[C@H](CO)[C@@H](O)[C@H](O)[C@H]4O[C@@H]4O[C@H](CO)[C@@H](O)[C@H](O)[C@H]4O)C(C)(C)[C@@H]3CC[C@]12C", "note": "[GS #05, ginsenoside Rb1]", "values": [
      {"measurement": "increase of the activity of the estrogen receptor ERα", "setting": "estrogen receptor ERα", "value": "slightly increased the activity of ERα"},
      {"measurement": "activity of ERα", "setting": "estrogen receptor ERα", "value": "activated the estrogen receptors to some extent"}
    ]},
    {"smiles": "CC1(C)C(=O)CC[C@@]2(C)C1[C@@H](O[C@H]1OC(CO)[C@H](O)C(O)C1O[C@H]1OC(CO)[C@H](O)C(O)C1O)C[C@]1(C)C2C[C@@H](O)C2C([C@]3(C)CC[C@H](C(C)(C)O)O3)CC[C@]21C", "note": "(stereo partly drawn) [GS #10, (20S,24R)-6-O-β-D-glucopyranosyl(1→2)-β-D-glucopyranoside-dammar-3-one-20,24-epoxy-6a,12b,25-triol]", "values": [
      {"measurement": "growth of MCF-7 breast cancer cells (side effect of promoting cancer cell growth)", "setting": "[1]", "value": "did not show such a side effect"},
      {"measurement": "increase of the activity of the estrogen receptor ERβ", "setting": "estrogen receptor ERβ; Test Example 1, 10 μg/mL for 24 hours, FIG. 12, FIG. 14", "value": "activated ERβ; also recorded: had an effect of increasing the activity"},
      {"measurement": "activity ratio of ERβ to ERα compared with red ginseng marker compounds", "setting": "estrogen receptor ERβ; Test Example 3, FIG. 16 and FIG. 17", "value": "higher than the ginsenosides Rb1, Rg1 and Rg3"},
      {"measurement": "activity of ERβ as compared to the ginsenosides Rg1 and Rb1", "setting": "estrogen receptor ERβ; Test Example 3, FIG. 17", "value": "at least 3 times"},
      {"measurement": "activity of ERβ", "setting": "estrogen receptor ERβ; Test Example 3, FIG. 17", "value": 136, "unit": "%"},
      {"measurement": "cytotoxicity (cell viability)", "setting": "SH-SY5Y cells", "value": "did not exhibit cytotoxicity up to 50 μM"},
      {"measurement": "increase of the activity of the estrogen receptor ERα", "setting": "estrogen receptor ERα", "value": "slightly increased the activity of ERα; also recorded: had an effect of increasing the activity"},
      {"measurement": "activity of ERα", "setting": "estrogen receptor ERα", "value": "not higher than Rg1 and Rb1"}
    ]},
    {"smiles": "CC(C)=CCC[C@](C)(O[C@@H]1O[C@H](CO)[C@@H](O)[C@H](O)[C@H]1O)[C@H]1CC[C@]2(C)[C@@H]1[C@H](O)C[C@@H]1[C@@]3(C)CC[C@H](O)C(C)(C)[C@@H]3[C@@H](O[C@@H]3O[C@H](CO)[C@@H](O)[C@H](O)[C@H]3O[C@@H]3O[C@@H](C)[C@H](O)[C@@H](O)[C@H]3O)C[C@]12C", "note": "[GS #03, ginsenoside Re]", "values": [
      {"measurement": "increase of the activity of the estrogen receptor ERα", "setting": "estrogen receptor ERα", "value": "slightly increased the activity of ERα"}
    ]},
    {"smiles": "CC(C)=CCC[C@](C)(O)[C@H]1CC[C@]2(C)[C@@H]1[C@H](O)C[C@@H]1[C@@]3(C)CC[C@H](O[C@@H]4O[C@H](CO)[C@@H](O)[C@H](O)[C@H]4O[C@@H]4O[C@H](CO)[C@@H](O)[C@H](O)[C@H]4O)C(C)(C)[C@@H]3CC[C@]12C", "note": "[Rg3, Ginsenoside Rg3, reference compound]", "values": [
      {"measurement": "activity of ERβ", "setting": "estrogen receptor ERβ; Test Example 3, FIG. 17", "value": "activated the estrogen receptors to some extent"},
      {"measurement": "activity of ERα", "setting": "estrogen receptor ERα", "value": "activated the estrogen receptors to some extent"}
    ]},
    {"smiles": "CC(C)=CCC[C@](C)(O[C@@H]1O[C@H](CO)[C@@H](O)[C@H](O)[C@H]1O)[C@H]1CC[C@]2(C)[C@@H]1[C@H](O)C[C@@H]1[C@@]3(C)CC[C@H](O)C(C)(C)[C@@H]3[C@@H](O[C@@H]3O[C@H](CO)[C@@H](O)[C@H](O)[C@H]3O)C[C@]12C", "note": "[GS #01, ginsenoside Rg1]", "values": [
      {"measurement": "activity of ERα", "setting": "estrogen receptor ERα", "value": "activated the estrogen receptors to some extent"}
    ]}
  ]
}
